Results as given in patent US20070049593A1 (priority 2004, published 2007).
Counter-ions that a name gives are not always drawn.

Target: T1, HCV polymerase (Hepatitis C virus genotype 1b, UniProt P26663)
T1 construct: a region encoding NS5B (J Virol 1991 March, 65(3), 1105-13, 544 amino acids after deletion of 47 amino acids on the C-terminal); 6xHis (C); made in house; host or cells: Escherichia coli
Experiment: biochemical
Parameters: species or system HCV BK strain
In short: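 Recombinant HCV BK-strain NS5B (C-terminal 47 aa deleted, His6-tagged, E. coli), 0.5 μg/ml, run with 5 μg/ml in vitro-transcribed RNA template (polyU/3′X), ATP/GTP/CTP 50 μM, UTP 2 μM plus [3H]UTP, pH 7.5, 25° C, 90 min. TCA-precipitated RNA counted by scintillation; IC50 from activity with vs without compound.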

T1 sequence (P26663 2420-2963): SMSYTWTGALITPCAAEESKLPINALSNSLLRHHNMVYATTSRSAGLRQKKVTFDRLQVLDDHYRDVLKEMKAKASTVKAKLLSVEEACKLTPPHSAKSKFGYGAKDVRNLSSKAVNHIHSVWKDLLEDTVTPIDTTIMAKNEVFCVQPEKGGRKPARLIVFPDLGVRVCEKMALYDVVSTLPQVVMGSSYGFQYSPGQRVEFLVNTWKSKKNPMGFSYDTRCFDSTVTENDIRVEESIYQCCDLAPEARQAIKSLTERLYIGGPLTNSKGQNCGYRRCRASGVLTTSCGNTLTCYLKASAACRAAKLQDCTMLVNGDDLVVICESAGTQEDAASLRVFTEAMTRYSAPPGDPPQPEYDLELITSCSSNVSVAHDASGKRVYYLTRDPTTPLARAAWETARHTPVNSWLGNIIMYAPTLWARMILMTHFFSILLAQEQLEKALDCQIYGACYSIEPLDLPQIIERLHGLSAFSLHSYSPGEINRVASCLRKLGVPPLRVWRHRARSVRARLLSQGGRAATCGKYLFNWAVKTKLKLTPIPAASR

| SMILES | IC50 |
| --- | --- |
| CC(C)(Cc1ccc(O)cc1)NC(=O)c1ccc2c(C3CCCCC3)c3n(c2c1)CCOc1ccccc1-3 [Example 2-220, N-[2-(4-hydroxyphenyl)-1,1-dimethylethyl]-12-cyclohexyl-6,7-dihydro-5-oxa-7a-azadibenzo[a,e]azulene-9-carboxamide] | 100 to 1000 nM |
| CC(C)(NC(=O)c1ccc2c(C3CCCCC3)c3n(c2c1)CCOc1ccccc1-3)c1ccc(OCc2ccccc2)cc1 [Example 2-228, N-[1-(4-benzyloxyphenyl)-1-methylethyl]-12-cyclohexyl-6,7-dihydro-5-oxa-7a-azadibenzo[a,e]azulene-9-carboxamide] | < 100 nM |
| CCOc1ccc2c(c1)N(CCN1CCCC(C)C1)CCn1c-2c(C2CCCCC2)c2ccc(C(=O)O)cc21 (stereo not drawn) [Example 1-345, 13-cyclohexyl-3-ethoxy-5-[2-(3-methylpiperidin-1-yl)ethyl]-6,7-dihydro-5H-benzo[5,6][1,4]diazepino[7,1-a]indole-10-carboxylic acid dihydrochloride] | < 100 nM |
| O=C(O)c1ccc2c(C3CCCCC3)c3n(c2n1)CCOc1cc(OCc2ccccc2)ccc1-3 [Example 7-8, 3-benzyloxy-12-cyclohexyl-6,7-dihydro-5-oxa-7a,8-diazadibenzo[a,e]azulene-9-carboxylic acid] | < 100 nM |
| COc1ccc(C[C@H](NC(=O)c2ccc3c(C4CCCCC4)c4n(c3c2)CCOc2ccccc2-4)C(=O)O)cc1 [Example 2-237, (S)-2-[(12-cyclohexyl-6,7-dihydro-5-oxa-7a-azadibenzo[a,e]azulene-9-carbonyl)amino]-3-(4-methoxyphenyl)propionic acid] | < 100 nM |
| COC(=O)[C@H](Cc1c[nH]cn1)NC(=O)c1ccc2c(C3CCCCC3)c3n(c2c1)CCOc1cc(OC)ccc1-3 [Example 2-280, methyl (S)-2-[(12-cyclohexyl-3-methoxy-6,7-dihydro-5-oxa-7a-azadibenzo[a,e]azulene-9-carbonyl)amino]-3-(1H-imidazol-4-yl)propionate] | < 100 nM |
| CCOC(=O)c1csc(C(C)(C)NC(=O)c2ccc3c(C4CCCCC4)c4n(c3c2)CCOc2ccccc2-4)n1 [Example 2-172, ethyl 2-{1-[(12-cyclohexyl-6,7-dihydro-5-oxa-7a-azadibenzo[a,e]azulene-9-carbonyl)amino]-1-methylethyl}thiazole-4-carboxylate] | < 100 nM |
| O=C(O)c1ccc2c(C3CCCCC3)c3n(c2c1)CCN(CCN1CCCC2CCCCC21)c1ccccc1-3 (stereo not drawn) [Example 1-144, 13-cyclohexyl-5-[2-(octahydroquinolin-1-yl)ethyl]-6,7-dihydro-5H-benzo[5,6][1,4]diazepino[7,1-a]indole-10-carboxylic acid dihydrochloride] | < 100 nM |
| CN1CCn2c(c(C3CCCCC3)c3ccc(C(=O)O)cc32)-c2ccc(OCCC3CCNCC3)cc21 [Example 1-438, 13-cyclohexyl-5-methyl-3-[2-(piperidin-4-yl)ethoxy]-6,7-dihydro-5H-benzo[5,6][1,4]diazepino[7,1-a]indole-10-carboxylic acid dihydrochloride] | < 100 nM |
| Cn1c(NC(=O)c2ccc3c(C4CCCCC4)c4n(c3c2)CCOc2ccccc2-4)nc2ccccc21 [Example 2-286, N-(1-methyl-1H-benzimidazol-2-yl)-12-cyclohexyl-6,7-dihydro-5-oxa-7a-azadibenzo[a,e]azulene-9-carboxamide] | 100 to 1000 nM |
| COc1ccc(CC(C)(C)NC(=O)c2ccc3c(C4CCCCC4)c4n(c3c2)CCOc2ccccc2-4)cc1 [Example 2-219, N-[2-(4-methoxyphenyl)-1,1-dimethylethyl]-12-cyclohexyl-6,7-dihydro-5-oxa-7a-azadibenzo[a,e]azulene-9-carboxamide] | 100 to 1000 nM |
| CC(C)(C)OC(=O)N1CC[C@H](Oc2ccc3c(c2)OCCn2c-3c(C3CCCCC3)c3ccc(C(=O)O)cc32)C1 [Example 2-40, 3-[(S)-1-(tert-butoxycarbonyl)pyrrolidin-3-yloxy]-12-cyclohexyl-6,7-dihydro-5-oxa-7a-azadibenzo[a,e]azulene-9-carboxylic acid] | < 100 nM |
| Cc1nc(C(C)(C)NC(=O)c2ccc3c(C4CCCCC4)c4n(c3c2)CCOc2ccccc2-4)[nH]c1C(=O)O [Example 2-227, 2-{1-[(12-cyclohexyl-6,7-dihydro-5-oxa-7a-azadibenzo[a,e]azulene-9-carbonyl)amino]-1-methylethyl}-5-methyl-3H-imidazole-4-carboxylic acid] | < 100 nM |
| CN(C)CCN1CCn2c(c(C3CCCCC3)c3ccc(C(=O)O)cc32)-c2ccc(OCc3cccc(N4CCCC4=O)c3)cc21 [Example 1-585, 13-cyclohexyl-5-(2-dimethylaminoethyl)-3-[3-(2-oxopyrrolidin-1-yl)benzyloxy]-6,7-dihydro-5H-benzo[5,6][1,4]diazepino[7,1-a]indole-10-carboxylic acid trihydrochloride] | < 100 nM |
| CC(C)(NC(=O)c1ccc2c(C3CCCCC3)c3n(c2c1)CCOc1ccccc1-3)c1nc2ccccc2[nH]1 [Example 2-198, N-[1-(1H-benzimidazol-2-yl)-1-methylethyl]-12-cyclohexyl-6,7-dihydro-5-oxa-7a-azadibenzo[a,e]azulene-9-carboxamide] | < 100 nM |
| COc1ccc2c(c1)OCCn1c-2c(C2CCCCC2)c2ccc(C(=O)NC(C)(C)c3ccc(CC(NC(C)=O)C(=O)O)cc3)cc21 (stereo not drawn) [Example 2-443, 2-acetylamino-3-(4-{1-[(12-cyclohexyl-3-methoxy-6,7-dihydro-5-oxa-7a-azadibenzo[a,e]azulene-9-carbonyl)amino]-1-methylethyl}phenyl)propionic acid] | < 100 nM |
| Cc1ccc2c(c1)N(CCN1CCOCC1)CCn1c-2c(C2CCCCC2)c2ccc(C(=O)O)cc21 [Example 1-68, 13-cyclohexyl-3-methyl-5-[2-(morpholin-4-yl)ethyl]-6,7-dihydro-5H-benzo[5,6][1,4]diazepino[7,1-a]indole-10-carboxylic acid dihydrochloride] | < 100 nM |
| COC(=O)[C@H](Cc1cccc(C(F)(F)F)c1)NC(=O)c1ccc2c(C3CCCCC3)c3n(c2c1)CCOc1cc(OC)ccc1-3 [Example 2-352, methyl (S)-2-[(12-cyclohexyl-3-methoxy-6,7-dihydro-5-oxa-7a-azadibenzo[a,e]azulene-9-carbonyl)amino]-3-(3-trifluoromethylphenyl)propionate] | < 100 nM |
| COC[C@@H]1CCCN(CCN2CCn3c(c(C4CCCCC4)c4ccc(C(=O)O)cc43)-c3ccc(F)cc32)C1 [Example 1-509, 13-cyclohexyl-3-fluoro-5-[2-((R)-3-methoxymethylpiperidin-1-yl)ethyl]-6,7-dihydro-5H-benzo[5,6][1,4]diazepino[7,1-a]indole-10-carboxylic acid dihydrochloride] | < 100 nM |
| COC(=O)Nc1ccccc1Oc1ccc2c(c1)OCCn1c-2c(C2CCCCC2)c2ccc(C(=O)O)cc21 [Example 2-52, 12-cyclohexyl-3-[2-(methoxycarbonylamino)phenoxy]-6,7-dihydro-5-oxa-7a-azadibenzo[a,e]azulene-9-carboxylic acid] | < 100 nM |
| COc1ccc2c(c1)OCCn1c-2c(C2CCCCC2)c2ccc(C(=O)NC3(C(=O)O)CCOCC3)cc21 [Example 2-400, 4-[(12-cyclohexyl-3-methoxy-6,7-dihydro-5-oxa-7a-azadibenzo[a,e]azulene-9-carbonyl)amino]tetrahydropyran-4-carboxylic acid] | < 100 nM |
